Key:
neuronal cells = details: cited from earlier work
Malignant Hyperthermia = details: in vivo; cited from earlier work
solubility in water = format: physicochemical
patients = assay: neurocognitive testing of patients undergoing coronary artery re-vascularization during cardiopulmonary bypass; format: in vivo, humans; details: 1.0 mg/kg of 5% colloidal dantrolene; 24 hours and six weeks post-op
Protocol: Prior to surgery, each patient would be given a battery of nine standard tests designed to measure cognitive function in four broad categories; attention and concentration; verbal memory; abstraction and visual orientation; and figure (numbers) memory. Patients would again administered the same tests 24 hours and six weeks post-operatively. Each assessment would be performed by the same investigator who would be blinded to the patient's study group assignment. At the time of the operation, each patient would be induced of general anesthesia according to a protocol utilizing a modified cardiac/narcotic technique. All agents would be administered on a weight based dose (mg/kg) whenever possible. Volatile anesthetic agents would be administered and regulated by the anesthesiologist via the endotracheal tube to maintain adequate blood and pulse pressures both pre and post bypass, and by the perfusionist during bypass to maintain pressures suitable for adequate tissue perfusion. A standardized protocol by which the operation is to be performed would be designed and applied to each patient enrolled in this study. […]

[1] = doses as high as 7.5 mg/kg i.v.; cited from earlier work
rats = details: intraperitoneally to rats; cited from earlier work
cell culture = details: cited from earlier work
[2] = tested on: apoptotic nuclei in the cortex of rats given 5 mg/kg kainic acid; details: cited from earlier work
[3] = tested on: apoptotic nuclei in the cortex of rats given 5 mg/kg kainic acid; details: quotient A/B as defined in the patent
Protocol: In the context of this patent, we define “therapeutic index” of a therapeutic drug (or mixture) to be the quotient A/B, where A and B are defined as follows: A is the LD50 (dose yielding 50% lethality) of the drug when given intraperitoneally to rats; and B is the dose of the drug that when given i.p. yields 50% reduction of apoptotic nuclei in the cortex of rats given 5 mg/kg kainic acid, according to the protocol described by Popescu et al. in [J. Cell.

dissolution = format: physicochemical
[4] = tested on: rats subjected to 60 min of CPB; assay: recovery model of cardiopulmonary bypass (CPB) in the rat; format: in vivo
Protocol: For example, three groups of rats may be subjected to 60 min of normothermic (37.5 degrees C.) nonpulsatile cardiopulmonary bypass (CPB) using a roller pump and a membrane oxygenator. Group 1 rats (n=10) receive no treatment. Group 2 rats (n=10) are pretreated with low volume dantrolene IV, 2.5 mg/kg, and Group 3 rats (n=10) are pretreated with low volume dantrolene IV, 5.0 mg/kg. A fourth group, (Group 4) serve as sham operated controls (n=10). Neurologic outcome is assessed on days 1, 3, and 12 after CPB using standardized functional testing. Neurocognitive outcome, defined as the time (or latency) to finding a submerged platform in a Morris water maze (an indicator of visual-spatial learning and memory), is evaluated daily from post-CPB days 3-12. […]

[5] = tested on: rats subjected to 60 min of CPB; details: Ma et al.; cited from earlier work

## N#Cc1cc2[nH]c(=O)c(=O)[nH]c2cc1[N+](=O)[O-] [CNQX]
Neuronal cells
  prevention of kainic-induced neurological damage: prevented

## O=C1CN(/N=C/c2ncc(-c3ccc(Br)cc3)o2)C(=O)N1 [azumolene]
Malignant Hyperthermia
  benefit in the treatment of Malignant Hyperthermia (MH): limited benefit

## O=C1CN(/N=C/c2ccc(-c3ccc([N+](=O)[O-])cc3)o2)C(O)=N1 [dantrolene sodium]
Solubility in water
  solubility: < 400 µg/mL

## O=C1CN(/N=C/c2ccc(-c3ccc([N+](=O)[O-])cc3)o2)C(O)=N1 [dantrolene]
patients
  CPB-induced neurologic and neurocognitive impairment in man: attenuates CPB-induced neurologic and neurocognitive impairment in man
[1]
  cardiopulmonary depression: does not cause cardiopulmonary depression
rats
  LD50 (dose yielding 50% lethality): 780 mg/kg
Cell culture
  toxicity induced by NMDA: inhibits
  toxicity induced by glutamate: inhibits
  toxicity of quisqualate (QA): inhibited
[2]; i.p., rats given 5 mg/kg kainic acid
  dose yielding 50% reduction of apoptotic nuclei in the cortex: 10 mg/kg
[2]; rat, in vivo
  kainic acid-mediated apoptosis mechanism: inhibits
[3]
  therapeutic index (LD50 / dose for 50% reduction of apoptotic nuclei): 78
dissolution; listed as Dantrolene free acid
  dissolution compared with the sodium salt: slower and less reliable
dissolution; listed as free acid
  dissolution compared with the sodium salt: significantly slower and more problematic than that of dantrolene sodium
[4]; 10.0 mg/kg IV 15 min prior to CPB
  attenuation of CPB-induced neurologic and neurocognitive dysfunction: comparable to xenon
[4]; pretreatment IV at both 2.5 mg/kg and 5.0 mg/kg, days 1-12
  neurologic and neurocognitive outcome after CPB: attenuates CPB associated neurologic and neurocognitive impairment

## [Xe] [xenon]
[5]
  neuroprotection in the rat CPB model: protective
